For 52 compounds, IC50 and EC50 results are on record in ChEMBL document CHEMBL6120938, “Covalent small-molecule inhibitors of SARS-CoV-2 Mpro: Insights into their design, classification, biological activity, and binding interactions” (Eur J Med Chem, 2024).

In general, IC50 refers to the concentration that inhibits the measured activity by half. The EC50 is the concentration giving half of the maximal effect.

Tested on in one experiment: not listed separately
In words: Inhibition of SARS-CoV-2 Main protease. Also noted: species or system Severe acute respiratory syndrome coronavirus 2.
Conditions: not given
For the compound `COc1cccc2[nH]c(C(=O)N[C@@H](CC(C)C)C(=O)N[C@@H](C[C@@H]3CCNC3=O)C(=O)CO)cc12` [PF-00835231], the IC50 worked out at 600 nM. As for `[2H]c1c([2H])c([2H])c(COC(C)N[C@@H](CC(C)C)C(=O)N[C@H](C=O)C[C@@H]2CCNC2=O)c([2H])c1[2H]` (some centres undefined), the IC50 stood at 160 nM. Still for that read-out and setting: the result for `CC(C)C[C@H](NC(=O)OCc1cccc(F)c1)C(=O)N[C@H](C=O)C[C@@H]1CCNC1=O` reads 130 nM; that for `O=C[C@H](C[C@@H]1CCNC1=O)NC(=O)[C@H](CC1CC1)NC(=O)OCc1cccc(F)c1`, 14 nM; that for `CCCCC1CCC(OC(=O)N[C@@H](CC(C)C)C(=O)N[C@H](C=O)C[C@H]2CCNC2=O)CC1` (some centres undefined), 130 nM.

Turning to `CC(C)C[C@H](NC(=O)OC(C)(C)C1CCC(F)(F)CC1)C(=O)N[C@@H](C[C@H]1CCNC1=O)C(O)S(=O)(=O)O` (some centres undefined), the IC50 amounted to 125 nM. For the compound `CCOC(=O)/C=C/[C@H](C[C@@H]1CCNC1=O)NC(=O)[C@@H](CC(=O)[C@@H](NC(=O)OCc1ccccc1)[C@H](C)OC(C)(C)C)CC(C)O` (some centres undefined), half-maximal inhibition (IC50) required 151 nM.

Consider `C=CC(=O)N(c1ccc(C(C)(C)C)cc1)C(C(=O)NCc1ccccc1)c1cccnc1` (centres undefined), for which the IC50 came out at 2860 nM. `C=CC(=O)N(c1ccc(C(C)(C)C)cc1)C(C(=O)NC)c1cccnc1` (centres undefined) gave a half-inhibitory concentration (IC50) of 2860 nM.

On to `CC(C)C[C@H](NC(=O)[C@@H](NC(=O)C1CCCCC1)C(C)C)C(=O)N[C@H](C=O)C[C@@H]1CCCNC1=O`, for which half-maximal inhibition (IC50) required 240 nM.

`O=C[C@H](C[C@@H]1CCNC1=O)NC(=O)[C@H](CC1CC1)NC(=O)OCc1ccccc1` returned an IC50 of 130 nM. `COc1cc(O)c2c(c1)O[C@H](c1cc(O)c(O)c(O)c1)[C@@H](O)C2=O` displayed an IC50 of 260 nM.

In turn, `CCCCCCNC(=O)n1cc(F)c(=O)[nH]c1=O` [CARMOFUR] returned a 50% inhibitory concentration (IC50) of 18 nM. `O=C(Oc1cncc(Cl)c1)c1cccs1` registered an IC50 of 81 nM. In turn, `COc1cccc2[nH]c(C(=O)N3C[C@H]4[C@@H]([C@H]3C(=O)N[C@@H](C[C@@H]3CCNC3=O)C(=O)c3nc5ccccc5s3)C4(C)C)cc12` returned an IC50 of 55 nM. `COc1cccc2[nH]c(C(=O)N[C@@H](CC(C)C)C(=O)N[C@@H](C[C@@H]3CCNC3=O)C(=O)COP(=O)(O)O)cc12` [LUFOTRELVIR] registered a half-inhibitory concentration (IC50) of 9 nM. On to `C=CC(=O)N(c1ccc(C(C)(C)C)cc1)C(C(=O)NCCc1cccc(F)c1)c1cccnc1` (centres undefined), for which inhibition was half-maximal at 2860 nM (IC50). `C=CC(=O)N(c1ccc(C(C)(C)C)cc1)C(C(=O)NC(C)(C)C)c1cccnc1` (centres undefined) came in with a half-inhibitory concentration (IC50) of 2950 nM. Consider `COc1cccc2[nH]c(C(=O)N[C@@H](CC(C)C)C(=O)N[C@H](C=O)C[C@@H]3CCNC3=O)cc12`, for which the IC50 is 130 nM. Turning to `C=CC(=O)N(c1ccc(C(C)(C)C)cc1)C(C(=O)NCCSC)c1cccnc1` (centres undefined), the midpoint of inhibition, the IC50, lay at 2860 nM. Regarding `C=CC(=O)N(c1ccc(C(C)(C)C)cc1)C(C(=O)NCCOC)c1cccnc1` (centres undefined), inhibition was half-maximal at 2860 nM (IC50). The same measure, in the same setting: the result for `CC(C)C[C@H](NC(=O)O[C@@H](C)c1ccccc1)C(=O)N[C@H](C=O)C[C@@H]1CCNC1=O` reads 130 nM.

As to `CC(C)C[C@H](NC(=O)OC(c1ccccc1)C1CCC(F)(F)CC1)C(=O)N[C@H](C=O)C[C@H]1CCNC1=O` (some centres undefined), half-maximal inhibition (IC50) required 130 nM. Still for that read-out and setting: as for `COc1cc(O)c2c(=O)c(O)c(-c3cc(O)c(O)c(O)c3)oc2c1`, the figure is 300 nM.

Tested on in another experiment: not listed separately
In words: Inhibition of MERS-CoV 3CLpro by FRET assay. Also noted: species or system Middle East respiratory syndrome-related coronavirus.
Conditions: not given
Take `CC(C)C[C@H](NC(=O)OC[C@@H]1C[C@H]1c1cccc(F)c1)C(=O)N[C@@H](CC1CCNC1=O)C(O)S(=O)(=O)O` (some centres undefined): the IC50 worked out at 70 nM. On the same count and under the same terms, the result for `CC(C)C[C@H](NC(=O)OC[C@@H]1C[C@H]1c1cccc(F)c1)C(=O)N[C@H](C=O)CC1CCNC1=O` (some centres undefined) reads 70 nM; that for `COc1ccccc1[C@@H]1C[C@H]1COC(=O)N[C@@H](CC(C)C)C(=O)N[C@@H](CC1CCNC1=O)C(O)S(=O)(=O)O` (some centres undefined), 70 nM. Turning to `COc1ccccc1[C@@H]1C[C@H]1COC(=O)N[C@@H](CC(C)C)C(=O)N[C@H](C=O)CC1CCNC1=O` (some centres undefined), 70 nM corresponded to half-maximal inhibition (IC50).

Another experiment addresses T1, Replicase polyprotein 1ab (Severe acute respiratory syndrome coronavirus 2, UniProt P0DTD1). The experiment can be described thus: Inhibition of N-terminal 6His-tagged SARS-CoV-2 3CL protease using FAM-SAVLQ as substrate pre-incubated for 15 mins followed by substrate addition and incubated for 30 mins by FRET analysis.
Conditions: not given
Compound `CC(C)C[C@H](NC(=O)OC[C@@H]1C[C@H]1C1CCCCC1)C(=O)N[C@@H](C[C@H]1CCNC1=O)[C@H](O)S(=O)(=O)O` displayed an IC50 of 170 nM. Consider `CC(C)C[C@H](NC(=O)OC[C@@H]1C[C@H]1c1cccc(Cl)c1)C(=O)N[C@H](C=O)C[C@H]1CCNC1=O`, for which it took 170 nM to reach half-maximal inhibition (IC50). In turn, `CC(C)C[C@H](NC(=O)OC[C@@H]1C[C@H]1c1ccccc1)C(=O)N[C@H](C=O)C[C@H]1CCNC1=O` showed an IC50 of 170 nM. On to `CC(C)C[C@H](NC(=O)OC[C@@H]1C[C@H]1C1CCC(F)(F)CC1)C(=O)N[C@@H](C[C@H]1CCNC1=O)[C@H](O)S(=O)(=O)O`, for which the IC50 amounted to 170 nM. With `COc1ccc([C@@H]2C[C@H]2COC(=O)N[C@@H](CC(C)C)C(=O)N[C@@H](C[C@H]2CCNC2=O)[C@@H](O)S(=O)(=O)O)cc1`, inhibition was half-maximal at 170 nM (IC50).

In the case of `CCC[C@@H]1C[C@H]1COC(=O)N[C@@H](CC(C)C)C(=O)N[C@@H](C[C@H]1CCNC1=O)[C@@H](O)S(=O)(=O)O`, half-maximal inhibition (IC50) was put at 170 nM.

Another experiment deals with SARS-CoV-2. In words: Antiviral activity against SARS-CoV-2 infected in Vero E6 cells assessed as inhibition of viral replication. In kind it is functional, organism-based. The conditions noted are these: Severe acute respiratory syndrome coronavirus 2, Vero C1008.
With `COc1cc(O)c2c(c1)O[C@H](c1cc(O)c(O)c(O)c1)[C@@H](O)C2=O`, the concentration giving a half-maximal response (EC50) is 8000 nM. Same read-out and setting: the result for `COc1cc(O)c2c(=O)c(O)c(-c3cc(O)c(O)c(O)c3)oc2c1` reads 8000 nM.

A further experiment concerns the target T1, Replicase polyprotein 1ab. In words: Inhibition of SARS-CoV-2 3CL protease.
Conditions: not given
`CC(C)C[C@H](NC(=O)OC[C@@H]1C[C@H]1C1CCCCC1)C(=O)N[C@@H](C[C@H]1CCNC1=O)[C@H](O)S(=O)(=O)O` showed an IC50 of 280 nM. `CC(C)C[C@H](NC(=O)OCC1CCC(F)(F)CC1)C(=O)N[C@@H](C[C@@H]1CCNC1=O)C(O)S(=O)(=O)O` (some centres undefined): 100 nM corresponded to half-maximal inhibition (IC50). `C=CS(=O)(=O)N(c1ccc(C(C)(C)C)cc1)C(C(=O)NCCc1cccc(Cl)c1)c1cccnc1` (centres undefined) registered an IC50 of 0.17 nM. `CCC1CCC(OC(=O)N[C@@H](CC(C)C)C(=O)N[C@H](C=O)C[C@@H]2CCNC2=O)CC1` (some centres undefined) gave an IC50 of 1100 nM. As for `S=C(S)NCc1cccnc1`, it took 30 nM to reach half-maximal inhibition (IC50). The same measure, in the same setting: as for `CCC1(OC(=O)N[C@@H](CC(C)C)C(=O)N[C@H](C=O)C[C@@H]2CCNC2=O)COCOC1`, the figure is 450 nM. The compound `C=CS(=O)(=O)N(c1ccc(C(C)(C)C)cc1)C(C(=O)NCCc1cccc(OC)c1)c1cccnc1` (centres undefined) returned an IC50 of 240 nM.

The next experiment concerns the target T1, Replicase polyprotein 1ab. The experiment can be described thus: Inhibition of SARS-CoV-2 3CL protease using DabcylKTSAVLQSGFRKME-Edans amide as substrate measured for 1 hrs by FRET assay.
Conditions: not given
Regarding `CC(C)C[C@H](NC(=O)OC[C@@H]1C[C@H]1c1cccc(F)c1)C(=O)N[C@@H](CC1CCNC1=O)C(O)S(=O)(=O)O` (some centres undefined), the IC50 was 140 nM. Still for that read-out and setting: the result for `CC(C)C[C@H](NC(=O)OC[C@@H]1C[C@H]1c1cccc(F)c1)C(=O)N[C@H](C=O)CC1CCNC1=O` (some centres undefined) reads 140 nM; that for `COc1ccccc1[C@@H]1C[C@H]1COC(=O)N[C@@H](CC(C)C)C(=O)N[C@@H](CC1CCNC1=O)C(O)S(=O)(=O)O` (some centres undefined), 140 nM; that for `COc1ccccc1[C@@H]1C[C@H]1COC(=O)N[C@@H](CC(C)C)C(=O)N[C@H](C=O)CC1CCNC1=O` (some centres undefined), 140 nM.

Tested on in the next experiment: not listed separately
In words: Inhibition of SARS-CoV-2 Main protease using DABCYL-KTSAVLQ-SGFRKM-E(EDANS) as substrate pre-treated for 15 mins and measured for 60 mins by FRET assay. Also noted: species or system Severe acute respiratory syndrome coronavirus 2.
Conditions: not given
As for `O=Cc1ncc(Br)cc1OCc1ccc(Cl)c(Br)c1`, the IC50 amounted to 6000 nM.

With `Cc1ccc(COc2cc(Br)cnc2C=O)cc1[N+](=O)[O-]`, the IC50 is 12000 nM. For the compound `O=Cc1ncc(Br)cc1OCc1ccc2ccccc2c1`, the IC50 was found to be 26000 nM. Consider `O=Cc1ncc(Br)cc1OCc1ccc(Cl)c([N+](=O)[O-])c1`, for which the IC50 was 1000 nM.

In the case of `O=Cc1ncc(Br)cc1OCc1cc(Br)ccc1Cl`, the IC50 was 6000 nM.

Another experiment deals with T1, Replicase polyprotein 1ab. The experiment can be described thus: Inhibition of SARS-CoV-2 3CL protease by luciferase reporter assay.
Conditions: not given
Regarding `C=CC(=O)N(CCC)[C@H](C(=O)NCc1ccc2c(c1)OCO2)c1cccc(O)c1`, the IC50 turned out to be 1000 nM. `C=CC(=O)O[C@H](CC)C(=O)NCCc1c[nH]c2ccccc12` yielded a 50% inhibitory concentration (IC50) of 139000 nM.

Consider `C=CC(=O)O[C@H](C(=O)NCc1cccc(OC)c1OC)c1ccc([N+](=O)[O-])cc1`, for which the IC50 came out at 9390 nM.

The test system of the next experiment is SARS-CoV-2. In words: Antiviral activity against SARS-CoV-2 infected in Vero E6 cells assessed as reduction in viral replication. It is filed as functional, organism-based. The conditions noted are these: Severe acute respiratory syndrome coronavirus 2, Vero C1008.
With `O=C1c2ccccc2CCC1CNCCc1ccc(O)cc1` (centres undefined), the EC50 was determined as 24000 nM. On to `Cc1ccc(C(=O)C(C)CN2CCCCC2)cc1` (centres undefined) [TOLPERISONE], for which the EC50 is 19200 nM.

`O=C[C@H](C[C@@H]1CCNC1=O)NC(=O)[C@@H]1[C@H]2CCC[C@H]2CN1C(=O)CCc1ccc(Cl)cc1Cl`: the EC50 stood at 540 nM. For `Cc1cc(C(=O)N[C@@H](C)C(=O)N[C@H](C(=O)N[C@@H](CC(C)C)[C@H](/C=C/C(=O)OCc2ccccc2)C[C@@H]2CCNC2=O)C(C)C)no1`, the EC50 came out at 16800 nM.
